Read-outs that look alike come from different tables or passages of the source.
Legend:
[1] = molecular target: Biotinylated KRAS G12C protein (Homo sapiens (Human), UniProt P01116, C118S/C51S/C80L/G12C); test: SOS-catalyzed nucleotide exchange assay (TR-FRET); type: biochemical; settings: in vitro apparent potency; preincubation time of 60 minutes prior to addition of SOS
In short: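 Biotinylated KRAS G12C preloaded with Bodipy-GDP and Tb-streptavidin, then incubated with compound (10-point, 3-fold series) for 60 min at RT. Exchange started with SOS and GTP for 60 min. TR-FRET 520/495 ratio normalised to DMSO and saturating-inhibitor controls; four-parameter fit.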

[2] = tested on: phospho-ERK; test: Cellular phospho-ERK assay; type: cell-based; settings: NCI-H358 cells, 2 hour incubation, ratio of p-Erk vs total Erk, read-out: IC50 (nM) pERK (Cell)
In short: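 NCI-H358 cells seeded overnight, then exposed to compound dose-response titrations for 2 hours at 37° C. in RPMI. Lysates assayed by AlphaLISA SureFire Ultra multiplex for p-Erk and total Erk; ratio p-Erk/total Erk used as readout, IC50 from 4-parameter logistic fit.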

Compound | IC50 [1] | IC50 [2] | IC50 ([2]; Homo sapiens, NCI-H358, 2 h)
C=CC(=O)N1C[C@H](C)N(c2nc(=O)n3c4nc(c(F)cc24)-c2cccc(O)c2OCCCc2ccnc(C(C)C)c2-3)C[C@H]1C [Example 113, 2-[(2S,5R)-2,5-dimethyl-4-(prop-2-enoyl)piperazin-1-yl]-20-fluoro-14-hydroxy-6-(propan-2-yl)-11,12-dihydro-4H,10H-1,18-(ethanediylidene)pyrido[4,3-e]pyrimido[1,6-g][1,7,9]benzoxadiazacyclododecin-4-one] | 33 nM | 113 nM | –
C=CC(=O)N1C[C@H](C)N(c2nc(=O)n3c4nc(c(Cl)cc24)-c2c(F)cccc2OCCc2ccnc(C(C)C)c2-3)C[C@H]1C (atropisomer, axis not shown) [Example 119, 19-chloro-2-[(2S,5R)-2,5-dimethyl-4-(prop-2-enoyl)piperazin-1-yl]-16-fluoro-6-(propan-2-yl)-10,11-dihydro-4H-1,17-ethenopyrido[4,3-d]pyrimido[1,6-f][1,6,8]benzoxadiazacycloundecin-4-one] | 2.6 nM | 5.1 nM | –
[2H]C1([2H])Oc2ccc(F)c(F)c2-c2nc3c(cc2Cl)c(N2CC(C)N(C(=O)C=C)CC2C)nc(=O)n3-c2c(ccnc2C(C)C)OC1([2H])[2H] [Example 57, (5aSa,17aRa)-20-chloro-2-[(2S,5R)-2,5-dimethyl-4-(prop-2-enoyl)piperazin-1-yl]-16,17-difluoro-6-(propan-2-yl)-11,12-di[(^2H)hydro](11,12-^2H2)-4H-1,18-(ethanediylidene)pyrido [4,3-e]pyrimido[1,6-g] [1,4,7,9]benzodioxadiaza-cyclododecin-4-one] | 0.51 nM | – | 6.1 nM
C=CC(=O)N1C[C@H](C)N(c2nc(=O)n3c4nc(c(F)cc24)-c2c(F)ccc(F)c2OC[C@H](C)Oc2ccnc(C(C)C)c2-3)C[C@H]1C [Example 94, (11S)-2-[(2S,5R)-2,5-dimethyl-4-(prop-2-enoyl)piperazin-1-yl]-14,17,20-trifluoro-11-methyl-6-(propan-2-yl)-11,12-dihydro-4H-1,18-ethenopyrido[4,3-e]pyrimido[1,6-g][1,4,7,9]benzodioxadiazacyclododecin-4-one] | 3.4 nM | 42 nM | –
[2H]C1([2H])Oc2ccc(F)c(F)c2-c2nc3c(cc2F)c(N2C[C@@H](C)N(C(=O)C=C)C[C@@H]2C)nc(=O)n3-c2c(ccnc2C(C)C)OC1([2H])[2H] [Example 64, 2-[(2S,5R)-2,5-Dimethyl-4-(prop-2-enoyl)piperazin-1-yl]-16,17,20-trifluoro-6-(propan-2-yl)-11,12-di[(^2H)hydro](11,12-^2H2)-4H-1,18-(ethanediylidene)pyrido [4,3-e]pyrimido[1,6-g][1,4,7,9] benzodioxadiazacyclo-dodecin-4-one] | 5.7 nM | – | 33 nM
C=CC(=O)N1CCN(c2nc(=O)n3c4nc(c(F)cc24)-c2c(F)cccc2CCOCCc2ccnc(C(C)C)c2-3)[C@H](C)C1 [Example 17b, 18,21-difluoro-2-[(2S)-2-methyl-4-(prop-2-enoyl)piperazin-1-yl]-6-(propan-2-yl)-10,11,13,14-tetrahydro-4H-1,19-ethenopyrido[3,4-e]pyrimido[6,1-c][9,2,4]benzoxadiazacyclotridecin-4-one] | 370 nM | 1180 nM | –
C=CC(=O)N1C[C@H](C)N(c2nc(=O)n3c4nc(c(F)cc24)-c2c(ccc(F)c2F)OCCCc2ccnc(C(C)C)c2-3)C[C@H]1C [Example 78, 2-[(2S,5R)-2,5-dimethyl-4-(prop-2-enoyl)piperazin-1-yl]-16,17,20-trifluoro-6-(propan-2-yl)-11,12-dihydro-4H,10H-1,18-ethenopyrido[4,3-e]pyrimido[1,6-g][1,7,9]benzoxadiazacyclododecin-4-one] | 2.4 nM | – | 18 nM
C=CC(=O)N1CCN(c2nc(=O)n3c4nc(c(F)cc24)-c2c(F)cccc2OCCCc2ccnc(C(C)C)c2-3)[C@@H](C)C1 (single isomer, unassigned) [Example 10a] | 4.3 nM | 6.7 nM | –
C=CC(=O)N1CCN(c2nc(=O)n3c4nc(c(F)cc24)-c2ccnn2CCCCc2ccnc(C(C)C)c2-3)[C@@H](C)C1 [Example 5, 20-fluoro-2-[(2S)-2-methyl-4-(prop-2-enoyl)piperazin-1-yl]-6-(propan-2-yl)-10,11,12,13-tetrahydro-4H-1,18-(ethanediylidene)-pyrazolo[5,1-e]pyrido-[4,3-k]pyrimido[1,6-a]-[1,3,6]triazacyclododecin-4-one] | 898 nM | – | 4440 nM
C=CC(=O)N1CCN(c2nc(=O)n3c4nc(c(F)cc24)-c2cccc4cnn(c24)CCCOc2ccnc(C(C)C)c2-3)[C@H](C)C1 [Example 3b, 22-fluoro-2-[(2S)-2-methyl-4-(prop-2-enoyl)piperazin-1-yl]-6-(propan-2-yl)-12,13-dihydro-4H,11H-1,20-ethenopyrido[4′,3′:2,3]pyrimido[1′,6′:4,5][1,4,6,10]oxatriazacyclotridecino[8,9,10-hi]indazol-4-one] | 15 nM | 93 nM | –
C=CC(=O)N1C[C@H](C)N(c2nc(=O)n3c4nc(c(F)cc24)-c2cc(C(F)(F)F)ccc2OCCOc2ccnc(C(C)C)c2-3)C[C@H]1C [Example 86, 2-[(2S,5R)-2,5-dimethyl-4-(prop-2-enoyl)piperazin-1-yl]-20-fluoro-6-(propan-2-yl)-16-(trifluoromethyl)-11,12-dihydro-4H-1,18-(ethanediylidene)pyrido[4,3-e]pyrimido[1,6-g][1,4,7,9] benzodioxadiazacyclododecin-4-one] | 64 nM | – | 389 nM

More lines, in order of falling IC50 [1], values ahead:

IC50 [1] | IC50 [2] | IC50 ([2]; Homo sapiens, NCI-H358, 2 h) | Compound
23 nM | 26 nM | – | 17,20-difluoro-2-[(2S)-2-methyl-4-(prop-2-enoyl)piperazin-1-yl]-6-(propan-2-yl)-10,11,12,13-tetrahydro-4H-1,18-ethenopyrido[4,3-e]pyrimido[1,6-g][1,7,9]benzotriazacyclododecin-4-one [Example 112]
12 nM | – | 50 nM | [2H]C1([2H])Oc2ccnc(C(C)C)c2-n2c(=O)nc(N3C[C@@H](C)N(C(=O)C=C)C[C@@H]3C)c3cc(F)c(nc32)-c2c(F)ccc(F)c2OC1([2H])[2H] [Example 67, 2-[(2S,5R)-2,5-Dimethyl-4-(prop-2-enoyl)piperazin-1-yl]-14,17,20-trifluoro-6-(propan-2-yl)-11,12-di[(^2H)hydro](11,12-^2H2)-4H-1,18-(ethanediylidene)pyrido [4,3-e]pyrimido[1,6-g][1,4,7,9] benzodioxadiazacyclo-dodecin-4-one]
10 nM | 20 nM | – | C=CC(=O)N1CC(C)N(c2nc(=O)n3c4nc(c(F)cc24)-c2c(F)ccc4cnn(c24)CCCCc2ccnc(C(C)C)c2-3)CC1C [Example 107, 2-[(2S,5R)-2,5-dimethyl-4-(prop-2-enoyl)piperazin-1-yl]-19,22-difluoro-6-(propan-2-yl)-10,11,12,13-tetrahydro-4H-1,20-(ethanediylidene)pyrido[4′,3′:12,13]pyrimido[1′,6′:1,2][1,3,7]triazacyclotridecino[5,6,7-hi]indazol-4-one]
4.5 nM | – | 6.3 nM | C=CC(=O)N1C[C@H](C)N(c2nc(=O)n3c4nc(c(F)cc24)-c2cccc4cnn(c24)CCCCc2ccnc(C(C)C)c2-3)C[C@H]1C [Example 68, 2-[(2S,5R)-2,5-dimethyl-4-(prop-2-enoyl)piperazin-1-yl]-22-fluoro-6-(propan-2-yl)-10,11,12,13-tetrahydro-4H-1,20-(ethanediylidene)pyrido [4′,3′:12,13]pyrimido [1′,6′:1,2][1,3,7]triaza-cyclotridecino[5,6,7-hi] indazol-4-one]
3.9 nM | – | 6.9 nM | C=CC(=O)N1CCN(c2nc(=O)n3c4nc(c(F)cc24)-c2c(F)cccc2OCCOc2ccnc(C(C)C)c2-3)[C@@H](C)C1 (single isomer, unassigned) [Example 12a]
3.8 nM | – | 32 nM | C=CC(=O)N1C[C@H](C)N(c2nc(=O)n3c4nc(c(F)cc24)-c2c(F)cccc2OCCc2ccnc(C(C)C)c2-3)C[C@H]1C [Example 96, 2-[(2S,5R)-2,5-dimethyl-4-(prop-2-enoyl)piperazin-1-yl]-16,19-difluoro-6-(propan-2-yl)-10,11-dihydro-4H-1,17-ethenopyrido[4,3-d]pyrimido[1,6-f][1,6,8]benzoxadiazacycloundecin-4-one]
2.9 nM | – | 21 nM | C=CC(=O)N1C[C@H](C)N(c2nc(=O)n3c4nc(c(F)cc24)-c2c(F)cccc2OC(C)CCc2ccnc(C(C)C)c2-3)C[C@H]1C (single isomer, unassigned) [Example 81]
2.6 nM | – | 54 nM | C=CC(=O)N1C[C@H](C)N(c2nc(=O)n3c4nc(c(F)cc24)-c2c(cc(F)c(F)c2F)OCCCc2ccnc(C(C)C)c2-3)C[C@H]1C [Example 80, 2-[(2S,5R)-2,5-dimethyl-4-(prop-2-enoyl)piperazin-1-yl]-15,16,17,20-tetrafluoro-6-(propan-2-yl)-11,12-dihydro-4H,10H-1,18-ethenopyrido[4,3-d]pyrimido[1,6-g][1,7,9]benzoxadiazacyclododecin-4-one]
0.74 nM | – | 14 nM | C=CC(=O)N1C[C@H](C)N(c2nc(=O)n3c4nc(c(F)cc24)-c2c(ccc(F)c2F)OCC(F)(F)CCc2ncnc(C(C)C)c2-3)C[C@H]1C [Example 58, 2-[(2S,5R)-2,5-dimethyl-4-(prop-2-enoyl)piperazin-1-yl]-12,12,17,18,21-pentafluoro-6-(propan-2-yl)-10,11,12,13-tetrahydro-4H-1,19-(ethanediylidene)dipyrimido [4,5-f:1′,6′-h][1,8,10] benzoxadiazacyclo-tridecin-4-one]

Reference: US20240043448A1, “Small Molecule Inhibitors of KRAS G12C Mutant” (Merck Sharp & Dohme LLC, priority 2019, published 2024)
